# According to publication PMC11748689, “Pharmacological and structural understanding of the Trypanosoma cruzi proteasome provides key insights for developing site-specific inhibitors” (The Journal of Biological Chemistry, 2024):
# Assays:
# [1] = target: native T. cruzi proteasome (chymotrypsin-like activity, β5) (Trypanosoma cruzi, UniProt V5BU39+V5C017); test: Chymotrypsin-like activity assay (Proteasome-Glo), native T. cruzi proteasome; type: biochemical
# Description: (§1) Chymotrypsin-, trypsin-, and caspase-like activity assays were performed using a commercially available Proteasome-Glo 3-substrate system assay kit (catalog number G8532) (Promega Corporation) according to the manufacturers protocols and as previously described ([24]).
# (§2) Prior to running assays, Proteasome-Glo buffer was used to reconstitute the luciferin detection reagent (containing a recombinant thermostable luciferase enzyme). The resuspended luciferin detection reagent was then mixed with Proteasome-Glo chymotrypsin-, trypsin- or caspase-like substrates (either 40 μM suc-Leu-Leu-Val-Tyr-aminoluciferin, 30 μM Z-Leu-Arg-Arg-aminoluciferin (Z is benzyloxycarbonyl) or 40 μM Z-Nle-Pro-Nle-Asp-aminoluciferin respectively (these concentrations represent 2x final assay concentrations)). These substrate mixtures were allowed to incubate at room temperature for 60 min prior to use to allow the removal of any contaminating free aminoluciferin.
# (§3) When proteasome inhibitors were to be screened in the chymotrypsin, trypsin, and caspase assays, test compounds were dispensed into assay wells using an ECHO 550 acoustic dispenser (Labcyte) (final DMSO concentration 1%). Compounds were tested in either a 10-point concentration series (30 μM top final assay concentration, 1 in 3 dilution series) or a 12-point concentration series (30 μM top final assay concentration, 1 in 2.5 dilution series).
# (§4) Proteasome assays were then performed as described above using Promega Proteasome-Glo 3-substrate system assay kit. […] Diluted proteasome (4 μl) was added to assay plates using an electronic multichannel pipette (Integra Biosciences Ltd) and the proteasome incubated with compound for 60 min at room temperature.
# (§5) Following the 60 min incubation of proteasome and compounds, assays were initiated with the addition of 4 μl of a substrate mix (containing substrate and the luciferin detection reagent) using an electronic multichannel pipette. Final assay concentrations of substrates used were either 20 μM Suc-Leu-Leu-Val-Tyr-aminoluciferin, 15 μM Z-Leu-Arg-Arg-aminoluciferin, or 20 μM Z-Nle-Pro-Nle-Asp-aminoluciferin for chymotrypsin-, trypsin-, or caspase-like activity, respectively. Following a further 60 min assay incubation, luminescence was read using an EnVision 2102 Multilabel Reader (PerkinElmer, Inc) with 0.2 s per well reading time.
# (§6) All data processing was performed using Microsoft Excel for Microsoft 365 software.
# (§7) Nonlinear dose-response curve fitting was carried out using the Microsoft Excel add-in, XLfit (IDBS). Percentage inhibition data were either fitted to a standard 4-parameter logistic fit model (XLfit model 205; Equation 2) or a biphasic model (either XLfit model 300; Equation 3 or a custom biphasic model; Equation 4 (used in cases where the top and/or bottom parameters deviated from 100%/0% inhibition)).(2) y=A+(B−A)/1+(C/x)^D Where A = % inhibition at bottom, B = % inhibition at top, C = IC50, D = slope, x = inhibitor concentration and y = % inhibition.(3) y=(A/(1+10^(C−log(x))∗B))+((100−A)/(1+10^(D−log(x))∗B)) With A = % inhibition at midplateau, B = slope, C = log(IC50^A), D = log(IC50^B)).
# (§8) All IC50 data generated were converted to pIC50 using Equation 5.
# [2] = test system: intracellular T. cruzi Silvio X10/7 A1 amastigotes; test: Intracellular T. cruzi assay; type: cell-based; details: Trypanosoma cruzi; 96 h compound treatment, Vero host cells; given as [mean pEC50, SD, N]; read-out: Mean pEC50 against intracellular T. cruzi parasites (converted)
# Description: Potency against intracellular T. cruzi Silvio X10/7 A1 amastigotes was determined as described previously ([53]), with a sole modification that the compound treatment duration was 96 h instead of 72 h. Vero host cells were obtained from The European Collection of Authenticated Cell Cultures (cat. number 84113001) and tested for mycoplasma (negative). T. cruzi Silvio X10/7 A1 was obtained from Prof. Alan Fairlamb, and discrete typing unit confirmed by genotyping ([53]).
# [3] = target: recombinant WT T. cruzi proteasome (chymotrypsin-like activity, β5) (Trypanosoma cruzi, UniProt V5BU39+V5C017); test: biochemical; type: biochemical; details: for maximum % inhibition plateau, Chymotrypsin Assay, Wild-type: mean ± SD, N = 3 (N = 2 for DDD02091966), (a) mid-point plateau from biphasic curve fits
# Chain of recombinant WT T. cruzi proteasome (chymotrypsin-like activity, β5) (V5BGL9 entry or part of it): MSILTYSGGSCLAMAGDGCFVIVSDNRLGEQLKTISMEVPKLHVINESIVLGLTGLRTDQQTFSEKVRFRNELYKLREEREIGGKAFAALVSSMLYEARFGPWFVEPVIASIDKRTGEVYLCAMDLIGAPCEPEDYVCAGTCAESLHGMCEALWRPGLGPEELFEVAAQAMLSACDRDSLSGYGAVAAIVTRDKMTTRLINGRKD
# Chain of recombinant WT T. cruzi proteasome (chymotrypsin-like activity, β5) (V5BU39 entry or part of it): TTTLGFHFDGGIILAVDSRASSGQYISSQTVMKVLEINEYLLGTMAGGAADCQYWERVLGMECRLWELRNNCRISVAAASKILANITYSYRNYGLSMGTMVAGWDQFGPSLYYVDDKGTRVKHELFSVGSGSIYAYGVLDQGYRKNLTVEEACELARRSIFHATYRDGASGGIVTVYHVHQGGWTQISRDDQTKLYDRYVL
# Chain of recombinant WT T. cruzi proteasome (chymotrypsin-like activity, β5) (V5C017 entry or part of it): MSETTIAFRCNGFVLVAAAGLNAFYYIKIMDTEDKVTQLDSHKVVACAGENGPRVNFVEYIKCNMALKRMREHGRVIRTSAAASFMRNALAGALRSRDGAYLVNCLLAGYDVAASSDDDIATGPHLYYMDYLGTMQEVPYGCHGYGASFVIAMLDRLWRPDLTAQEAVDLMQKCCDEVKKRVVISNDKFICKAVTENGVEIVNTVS
# Description: as §1, §2
# Proteasome assays were carried out using 384-well, white, low-volume plates (catalog number 784904) (Greiner Bio-One) at room temperature (∼23 °C) in 8 μl reaction volumes. When activity checks were to be run in the presence or absence of a fixed concentration of proteasome inhibitor, 80 nL of the inhibitor (at a concentration 100x the required final assay concentration), or 80 nL dimethylsulfoxide (DMSO), were dispensed into assay plates using an Echo 550 acoustic dispenser (Labcyte).
# A 1 in 2 dilution series of the various T. cruzi proteasome samples (native, recombinant WT, β4^R mutant, and Δβ1Δβ2 mutant) were produced in assay buffer (50 mM Tris–HCl, pH 7.5, 10 mM sucrose, 5 mM MgCl2, 1 mM DTT, 2 mM ATP, 150 mM NaCl, 1 mM EDTA, and 0.05 mg/ml bovine serum albumin). Subsequently, 4 μl of the various concentrations of diluted proteasome were added to assay plates using an electronic multichannel pipette (Integra Biosciences Ltd). When kinetic read activity checks were performed (Fig. 2), proteasome final assay concentrations used were 115 μg/ml, 115 μg/ml, and 230 μg/ml native proteasome (in the chymotrypsin, trypsin, and caspase assays, respectively), and 4.1 μg/ml, 3.4 μg/ml, or 1.4 μg/ml recombinant WT proteasome (in the chymotrypsin, trypsin, and caspase assays, respectively). When activity checks were to be run in the presence or absence of a proteasome inhibitor plates containing inhibitor or DMSO control were incubated with the relevant proteasome sample for 60 min at room temperature (this step was not included in activity check experiments where compounds were not used).
# Following the 60 min incubation of proteasome and compound (if required), assays were initiated with the addition of 4 μl of substrate mix (containing substrate and the luciferin detection reagent) using an electronic multichannel pipette. Final assay concentrations of substrates used were either 20 μM Suc-Leu-Leu-Val-Tyr-aminoluciferin, 15 μM Z-Leu-Arg-Arg-aminoluciferin, or 20 μM Z-Nle-Pro-Nle-Asp-aminoluciferin for chymotrypsin-, trypsin- or caspase-like activity respectively.
# Luminescence was read either kinetically or as an endpoint read using an EnVision 2102 Multilabel Reader (PerkinElmer, Inc) with 0.2 s per well reading time. When kinetic assays were run, luminescence was read every 5 min for 90 min. Endpoint assays were run for 60 min before luminescence was read. All data processing and linear fit analyses were performed using Microsoft Excel for Microsoft 365 software (Redmond, Washington; https://www.microsoft.com/).
# as §3
# [4] = target: recombinant WT T. cruzi proteasome (caspase-like activity, β1) (Trypanosoma cruzi, UniProt V5BHX1); test: Caspase-like activity assay (Proteasome-Glo), recombinant wild-type T. cruzi proteasome; type: biochemical
# Description: as §1, §2, §3, §4, §5, §6, §7, §8
# [5] = target: native T. cruzi proteasome (caspase-like activity, β1) (Trypanosoma cruzi, UniProt V5BHX1); test: Caspase-like activity assay (Proteasome-Glo), native T. cruzi proteasome; type: biochemical; details: mean ± SD, N = 3; read-out: pIC50, Caspase Assay, Native (converted)
# Description: as §1, §2, §3, §4, §5, §6, §7, §8
# Chain of native T. cruzi proteasome (chymotrypsin-like activity, β5) (V5BU39 entry or part of it): as the sequence (V5BU39 entry or part of it) above
# Chain of native T. cruzi proteasome (chymotrypsin-like activity, β5) (V5C017 entry or part of it): as the sequence (V5C017 entry or part of it) above
# Chain of native T. cruzi proteasome (chymotrypsin-like activity, β5) (V5BGL9 entry or part of it, further chain): as the sequence (V5BGL9 entry or part of it) above
Structure (SMILES),IC50 [1] [nM],EC50 [2] [nM],IC50 [3] [nM],"inhibition of chymotrypsin activity, recombinant WT proteasome, fixed concentration ([3]; 1 μM compound, endpoint activity vs proteasome concentration (Fig. 7A))","maximum % inhibition plateau, Chymotrypsin Assay, Wild-type [3] [%]",IC50 [4] [nM],IC50 [5] [nM],inhibition of the caspase activity ([4]; native and recombinant T. cruzi proteasomes)
O=C(Nc1ccc(F)c(-c2cn3nc(-c4ccccc4)cnc3n2)c1)N1CCCC1 [DDD01012248],30.9,20,52.5,partial inhibition,67.7 ± 4.0,> 30200,> 30200,–
"O=C(Nc1ccc(F)c(C(=O)NC2CC2)c1)c1ccc(COc2ccccc2)o1 [DDD02091966, N-(3-(cyclopropylcarbamoyl)-4-fluorophenyl)-5-(phenoxymethyl)furan-2-carboxamide]",38,251,34.7,–,51.6 ± 1.8,> 30200,> 30200,no inhibition
